Results: patent publication US20040029254A1, “Method of screening anti-bacterial agents for effectiveness in treating persistant intracellular infections” (University of Washington, priority 2002, published 2004)
Converted amounts (≈) assume the structure as drawn. “And” between values parts separate entries of the source, which are not always exact repeats. Equal values may be shown once. Read-outs that look alike come from different tables or passages of the source.

Assays:
Format in all cases: cell-based
[1] = test system: C. pneumoniae TW-183, CWL-029; test: Anti-bacterial susceptibilities of reference strains; conditions: for MIC: Chlamydia pneumoniae, HEp-2 cells, read-out: MIC (microtiter)
[2] = test system: Chlamydia trachomatis clinical isolates; test: Anti-bacterial susceptibilities of clinical isolates; conditions: for MIC: Chlamydia trachomatis, read-out: MIC (microtiter)
[3] = test system: C. trachomatis serovar D strain; test: Comparison of MIC, MCC, MCC3 and MCC3/MIC ratio in McCoy cells; conditions: for MIC: Chlamydia trachomatis
[4] = test system: C. psittaci 6BC, GPIC; test: microbe, parasite or virus in culture; conditions: Chlamydia psittaci, read-out: MIC (microtiter)
[5] = test system: C. trachomatis L2 (LGV serovar); test: Anti-bacterial susceptibilities of reference strains; conditions: Chlamydia trachomatis; McCoy cells; read-out: MIC (microtiter)
[6] = test system: clinical isolates of C. trachomatis; test: microbe, parasite or virus in culture
[7] = test system: C. trachomatis serovar D (strain UW-3); test: Effect of inoculum size on doxycycline MIC, MCC and MCC3
[8] = test system: C. trachomatis B,D,E,F,G,H,I,Ia,J,K (human genital serovars); test: Anti-bacterial susceptibilities of reference strains; conditions: Chlamydia trachomatis; McCoy cells; read-out: MIC (microtiter)
[9] = test system: C. trachomatis MoPn (mouse pneumonitis strain); test: as above; conditions: Chlamydia trachomatis; McCoy cells; read-out: MIC (microtiter)
[10] = test system: Chlamydia trachomatis serovar D; test: microbe, parasite or virus in culture
[11] = CDC strains sensitive controls (n = 2), McCoy cells
[12] = CDC strains treatment failures (n = 2), McCoy cells
[13] = Recurrent same serovar isolates (n = 6), McCoy cells
[14] = Single isolates (n = 30), McCoy cells
[15] = Treatment failure isolates (n = 6), McCoy cells
[16] = inoculum 0.3125 × 10^3 IFU/well
[17] = CDC strains treatment failures (n = 2), multi-drug resistant at CDC, McCoy cells

CC[C@H]1OC(=O)[C@H](C)[C@@H](O[C@H]2C[C@@](C)(OC)[C@@H](O)[C@H](C)O2)[C@H](C)[C@@H](O[C@@H]2O[C@H](C)C[C@H](N(C)C)[C@H]2O)[C@](C)(O)C[C@@H](C)CN(C)[C@H](C)[C@@H](O)[C@]1(C)O [Azithromycin, azithromycin]
MCC1 (shell vial) [1]: 4 to 8 µg/mL | MCC3 (shell vial) [1]: 64 µg/mL | MCC (microtiter) [1]: 0.25 µg/mL | MCC3 (shell vial) [2, 11]: 64 µg/mL | MCC (microtiter) [2, 11]: 0.25 to 0.5 µg/mL | MCC (shell vial) [2, 11]: >8 µg/mL | MCC3 (shell vial) [2, 12]: 64 µg/mL | MCC (microtiter) [2, 12]: 0.25 to 0.5 µg/mL | MCC (shell vial) [2, 12]: >8 µg/mL | MCC3 (shell vial) [2, 13]: 64 µg/mL | MCC (microtiter) [2, 13]: 0.25 to 0.5 µg/mL | MCC (shell vial) [2, 13]: >8 µg/mL | MCC3 (shell vial) [2, 14]: 64 µg/mL | MCC (microtiter) [2, 14]: 0.25 to 0.5 µg/mL | MCC (shell vial) [2, 14]: >8 µg/mL | MCC3 (shell vial) [2, 15]: 64 µg/mL | MCC (microtiter) [2, 15]: 0.25 to 0.5 µg/mL | MCC (shell vial) [2, 15]: >8 µg/mL | MCC ([3]; McCoy cells): 8 µg/mL | MCC3 ([3]; McCoy cells): 64 µg/mL

C[C@H]1c2cccc(O)c2C(=O)C2=C(O)[C@]3(O)C(=O)C(C(N)=O)=C(O)[C@@H](N(C)C)[C@@H]3[C@@H](O)[C@@H]21 [Doxycycline, doxycycline]
MIC [4]: 0.064 µg/mL (≈ 144 nM) | MIC [5]: 0.064 µg/mL (≈ 144 nM) | MCC1 (shell vial) [1]: 4 to 8 µg/mL | MCC3 (shell vial) [1]: 32 to 64 µg/mL | MCC (microtiter) [1]: 0.125 µg/mL | MIC [1]: 0.064 µg/mL (≈ 144 nM) | MCC3/MIC [6]: 1000 | MIC ([6]; Chlamydia trachomatis): 64 to 125 ng/mL (≈ 144 to 281 nM) | MIC ([7]; Chlamydia trachomatis, inoculum 80 × 10^3 IFU/well, read-out: MIC): 0.064 µg/mL (≈ 144 nM) | MCC [7, 16]: 0.064 µg/mL | MCC3 [7, 16]: 0.064 µg/mL | MIC [7, 16]: 0.064 µg/mL (≈ 144 nM) | MCC ([7]; inoculum 0.625 × 10^3 IFU/well): 0.064 µg/mL | MCC3 ([7]; inoculum 0.625 × 10^3 IFU/well): 0.064 µg/mL | MIC ([7]; inoculum 0.625 × 10^3 IFU/well): 0.064 µg/mL (≈ 144 nM) | MCC ([7]; inoculum 5 × 10^3 IFU/well): >8 µg/mL | MCC3 ([7]; inoculum 5 × 10^3 IFU/well): 64 µg/mL | MIC ([7]; inoculum 5 × 10^3 IFU/well): 0.064 µg/mL (≈ 144 nM) | MCC ([7]; inoculum 10 × 10^3 IFU/well): >8 µg/mL | MCC3 ([7]; inoculum 10 × 10^3 IFU/well): 64 µg/mL | MIC ([7]; inoculum 10 × 10^3 IFU/well): 0.064 µg/mL (≈ 144 nM) | MCC ([7]; inoculum 20 × 10^3 IFU/well): >8 µg/mL | MCC3 ([7]; inoculum 20 × 10^3 IFU/well): 64 µg/mL | MIC ([7]; inoculum 20 × 10^3 IFU/well): 0.064 µg/mL (≈ 144 nM) | MCC ([7]; inoculum 40 × 10^3 IFU/well): >8 µg/mL | MCC3 ([7]; inoculum 40 × 10^3 IFU/well): 64 µg/mL | MIC ([7]; inoculum 40 × 10^3 IFU/well): 0.064 µg/mL (≈ 144 nM) | MCC ([7]; inoculum 80 × 10^3 IFU/well): >8 µg/mL | MCC3 ([7]; inoculum 80 × 10^3 IFU/well): 64 µg/mL | MCC ([7]; inoculum 160 × 10^3 IFU/well): >8 µg/mL | MCC3 ([7]; inoculum 160 × 10^3 IFU/well): 64 µg/mL | MIC ([7]; inoculum 160 × 10^3 IFU/well): 0.064 µg/mL (≈ 144 nM) | MCC ([7]; inoculum 320 × 10^3 IFU/well): >8 µg/mL | MCC3 ([7]; inoculum 320 × 10^3 IFU/well): 64 µg/mL | MIC ([7]; inoculum 320 × 10^3 IFU/well): 0.064 µg/mL (≈ 144 nM) | MCC ([7]; inoculum […] 10^3 IFU/well): 0.064 µg/mL | MCC3 ([7]; inoculum […] 10^3 IFU/well): 0.064 µg/mL | MIC ([7]; inoculum […] 10^3 IFU/well): 0.064 µg/mL (≈ 144 nM) | MIC [8]: 0.064 µg/mL (≈ 144 nM) | MIC [9]: 0.064 µg/mL (≈ 144 nM) | MCC3 (shell vial) [2, 11]: 16 to 64 µg/mL | MCC (microtiter) [2, 11]: 0.125 to 0.25 µg/mL | MCC (shell vial) [2, 11]: >8 µg/mL | MIC (microtiter) [2, 11]: 0.064 to 0.125 µg/mL | MIC (microtiter) [2, 17]: 0.064 to 0.125 µg/mL | MCC3 (shell vial) [2, 12]: 16 to 64 µg/mL | MCC (microtiter) [2, 12]: 0.125 to 0.25 µg/mL | MCC (shell vial) [2, 12]: >8 µg/mL | MIC [2]: 0.064 to 0.125 µg/mL (≈ 144 to 281 nM) | MCC3 (shell vial) [2, 13]: 16 to 64 µg/mL | MCC (microtiter) [2, 13]: 0.125 to 0.25 µg/mL | MCC (shell vial) [2, 13]: >8 µg/mL | MCC3 (shell vial) [2, 14]: 16 to 64 µg/mL | MCC (microtiter) [2, 14]: 0.125 to 0.25 µg/mL | MCC (shell vial) [2, 14]: >8 µg/mL | MIC (microtiter) [2, 14]: 0.064 to 0.125 µg/mL | MCC3 (shell vial) [2, 15]: 16 to 64 µg/mL | MCC (microtiter) [2, 15]: 0.125 to 0.25 µg/mL | MCC (shell vial) [2, 15]: >8 µg/mL | MIC (microtiter) [2, 15]: 0.064 to 0.125 µg/mL | MCC3/MIC [3]: 1000 | MIC ([3]; McCoy cells, read-out: MIC): 0.064 µg/mL | MCC ([3]; McCoy cells): 8 µg/mL | MCC3 ([3]; McCoy cells): 64 µg/mL

CC[C@H]1OC(=O)[C@H](C)[C@@H](O[C@H]2C[C@@](C)(OC)[C@@H](O)[C@H](C)O2)[C@H](C)[C@@H](O[C@@H]2O[C@H](C)C[C@H](N(C)C)[C@H]2O)[C@](C)(O)C[C@@H](C)C(=O)[C@H](C)[C@@H](O)[C@]1(C)O [Erythromycin, erythromycin]
MIC ([3]; McCoy cells, read-out: MIC): 0.5 µg/mL | MCC ([3]; McCoy cells): 8 µg/mL

CCCN1CCN(c2cc(O)c3nc4c5c6c7c(C)c(O)c5c(=O)c(c-4oc3c2)NC(=O)/C(C)=C\C=C\[C@H](C)[C@H](O)[C@@H](C)[C@@H](O)[C@@H](C)[C@H](OC(C)=O)[C@H](C)[C@@H](OC)/C=C/O[C@@](C)(O7)C6=O)CC1 [KRM-1657]
MCC3/MIC [6]: 16 | MIC [6]: 0.064 to 0.125 ng/mL | anti-chlamydial activity in words [6]: highly active

CC1COc2c(N3CCN(C)CC3)c(F)cc3c(=O)c(C(=O)O)cn1c23 (stereo not drawn) [Ofloxacin, ofloxacin]
MIC [4]: 0.5 µg/mL (≈ 1380 nM) | MCC [10]: >8 µg/mL and 4 µg/mL and 8 µg/mL | MIC [5]: 0.5 µg/mL (≈ 1380 nM) | MCC1 (shell vial) [1]: >8 µg/mL | MCC3 (shell vial) [1]: >128 µg/mL | MCC (microtiter) [1]: 1.0 µg/mL | MIC [1]: 0.5 µg/mL (≈ 1380 nM) | MCC3/MIC [6]: 128 | MIC ([6]; Chlamydia trachomatis): 1000 to 2000 ng/mL (≈ 2770 to 5530 nM) | MIC [8]: 0.5 µg/mL (≈ 1380 nM) | MIC [9]: 0.5 µg/mL (≈ 1380 nM) | MCC3 (shell vial) [2, 11]: >128 µg/mL | MCC (microtiter) [2, 11]: 1 to 2 µg/mL | MCC (shell vial) [2, 11]: >8 µg/mL | MIC (microtiter) [2, 11]: 0.5 to 1.0 µg/mL | MIC (microtiter) [2, 17]: 0.5 to 1.0 µg/mL | MCC3 (shell vial) [2, 12]: >128 µg/mL | MCC (microtiter) [2, 12]: 1 to 2 µg/mL | MCC (shell vial) [2, 12]: >8 µg/mL | MIC [2, 13]: 0.5 to 1 µg/mL (≈ 1380 to 2770 nM) | MCC3 (shell vial) [2, 13]: >128 µg/mL | MCC (microtiter) [2, 13]: 1 to 2 µg/mL | MCC (shell vial) [2, 13]: >8 µg/mL | MCC3 (shell vial) [2, 14]: >128 µg/mL | MCC (microtiter) [2, 14]: 1 to 2 µg/mL | MCC (shell vial) [2, 14]: >8 µg/mL | MIC (microtiter) [2, 14]: 0.5 to 1.0 µg/mL | MCC3 (shell vial) [2, 15]: >128 µg/mL | MCC (microtiter) [2, 15]: 1 to 2 µg/mL | MCC (shell vial) [2, 15]: >8 µg/mL | MIC (microtiter) [2, 15]: 0.5 to 1.0 µg/mL | MCC3 [3]: 128 µg/mL | MCC3/MIC [3]: 128 | MIC ([3]; McCoy cells, read-out: MIC): 1 µg/mL | MCC ([3]; McCoy cells): 16 µg/mL

CO[C@H]1/C=C/O[C@@]2(C)Oc3c(C)c(O)c4c(=O)c(c5oc6cc(N7CCN(CC(C)C)CC7)cc(O)c6nc-5c4c3C2=O)NC(=O)/C(C)=C\C=C\[C@H](C)[C@H](O)[C@@H](C)[C@@H](O)[C@@H](C)[C@H](OC(C)=O)[C@@H]1C [Rifalazil, rifalazil]
MCC3/MIC [6]: 16 | anti-chlamydial activity in words [6]: highly active | MIC ([6]; Chlamydia trachomatis): 0.25 to 5 ng/mL (≈ 0.266 to 5.31 nM) | MCC3/MIC [3]: 16 | MIC ([3]; McCoy cells, read-out: MIC): 0.00025 µg/mL | MCC ([3]; McCoy cells): 0.002 µg/mL | MCC3 ([3]; McCoy cells): 0.004 µg/mL | anti-chlamydial activity in words ([3]; McCoy cells, compared with other drugs): highly active

CO[C@H]1/C=C/O[C@@]2(C)Oc3c(C)c(O)c4c(O)c(c(/C=N/N5CCN(C)CC5)c(O)c4c3C2=O)NC(=O)/C(C)=C\C=C\[C@H](C)[C@H](O)[C@@H](C)[C@@H](O)[C@@H](C)[C@H](OC(C)=O)[C@@H]1C [Rifampin, rifampin]
MIC ([3]; McCoy cells, read-out: MIC): 0.016 µg/mL | MCC ([3]; McCoy cells): 0.5 µg/mL | MCC3 ([3]; McCoy cells): 4 µg/mL | MCC3/MIC ([3]; McCoy cells): 250

CN(C)[C@@H]1C(O)=C(C(N)=O)C(=O)[C@@]2(O)C(O)=C3C(=O)c4c(O)cccc4[C@@](C)(O)[C@H]3C[C@@H]12 [Tetracycline, tetracycline]
MIC ([10]; Chlamydia trachomatis): 0.25 µg/mL (≈ 563 nM) | MCC [3]: 16 µg/mL | MCC3 [3]: 128 µg/mL | MCC3/MIC [3]: 128 | MIC [3]: 0.25 µg/mL
